Assay: Stability of pure lycopene isomers in n-hexane during storage at room temperature
Assay type: physicochemical
Settings: for concentration (% of total isomers) 5-Z / concentration (% of total isomers) all E / concentration (% of total isomers) x-Z / concentration (% of total isomers) 9-Z / concentration (% of total isomers) 13-Z: n-hexane, room temperature, absence of light
Description: Pure 5-Z, 9-Z, 13-Z and all-E lycopene were isolated from isomerised tomato oleoresin (submitted to 1 hour heating), by collecting the fractions containing the corresponding peaks after HPLC separation (see below the experimental conditions). Peaks were collected during two consecutive HPLC runs and the corresponding fractions were pooled.
Lycopene isomer profiles were determined by normal phase HPLC according to the method described by Schierle et al. (Schierle, J., Bretzel, W., Bühler, I., Faccin, N., Hess, D., Steiner, K., Schuep, W. (1997). Food. Chem. 59: 459). Samples of isomerized oleoresins were dissolved in n-hexane containing 50 ppm BHT and spun at maximum speed in an Eppendorf Lab centrifuge. The resulting supernatants were immediately analyzed by HPLC. The HPLC system used was a 1100 series Hewlett-Packard model equipped with an ultraviolet-visible photodiode array detector. Data were simultaneously acquired at 470 nm, 464 nm, 346 nm and 294 nm. Samples (10 μL) were separated using a combination of three Nucleosil 300-5 columns (4 mm internal diameter×250 mm length, Macherey-Nagel). […] Flow rate was 0.8 mL/min. Lycopene Z-isomers were identified according to literature data.
Amounts of lycopene isomers were calculated based on surface areas of the HPLC peaks using the same extinction coefficient as the all-E lycopene. Therefore, the lycopene concentration in products containing Z-isomers is slightly underestimated since it is recognized that the extinction coefficients of Z-isomers are lower than that of the all-E isomer.
Stability of lycopene isomers was investigated both in n-hexane and in a tomato oleoresin isomerized by 4 hour heating in ethyl acetate. For this purpose, pure lycopene isomers were stored for 33 days in n-hexane at room temperature and in the absence of light, and the isomerized tomato oleoresin was kept for 55 days at room temperature in the absence of light. Total lycopene concentration and lycopene isomer profiles were measured at various time intervals during the storage.

| SMILES | concentration (% of total isomers) 5-Z (0 days) | concentration (% of total isomers) all E (0 days) | concentration (% of total isomers) x-Z (0 days) | concentration (% of total isomers) 5-Z (1 day) | concentration (% of total isomers) all E (1 day) | concentration (% of total isomers) x-Z (1 day) | concentration (% of total isomers) 5-Z (2 days) | concentration (% of total isomers) all E (2 days) | concentration (% of total isomers) x-Z (2 days) | concentration (% of total isomers) 5-Z (5 days) | concentration (% of total isomers) all E (5 days) | concentration (% of total isomers) x-Z (5 days) | concentration (% of total isomers) 5-Z (12 days) | concentration (% of total isomers) 9-Z (12 days) | concentration (% of total isomers) 13-Z (12 days) | concentration (% of total isomers) all E (12 days) | concentration (% of total isomers) x-Z (12 days) | concentration (% of total isomers) 5-Z (33 days) | concentration (% of total isomers) 9-Z (33 days) | concentration (% of total isomers) 13-Z (33 days) | also measured |
| --- | --- | --- | --- | --- | --- | --- | --- | --- | --- | --- | --- | --- | --- | --- | --- | --- | --- | --- | --- | --- | --- |
| CC(C)=CCC\C(C)=C/C=C/C(C)=C/C=C/C(C)=C/C=C/C=C(C)/C=C/C=C(C)/C=C/C=C(\C)CCC=C(C)C [5-Z lycopene] | 95.5 % of total isomers | 1.1 % of total isomers | 3.4 % of total isomers | 84.3 % of total isomers | 2.2 % of total isomers | 13.5 % of total isomers | 76.9 % of total isomers | 2.4 % of total isomers | 20.6 % of total isomers | 68.4 % of total isomers | 3.9 % of total isomers | 27.7 % of total isomers | 65.3 % of total isomers | 0.7 % of total isomers | 1.7 % of total isomers | 5.6 % of total isomers | 26.7 % of total isomers | 53.5 % of total isomers | 2.3 % of total isomers | 2.8 % of total isomers | concentration (% of total isomers) all E (33 days): 10.7 % of total isomers; concentration (% of total isomers) x-Z (33 days): 30.7 % of total isomers |
| CC(C)=CCC/C(C)=C/C=C/C(C)=C\C=C\C(C)=C\C=C\C=C(C)\C=C\C=C(C)\C=C\C=C(/C)CCC=C(C)C [9-Z lycopene] | 1.8 % of total isomers | 4.4 % of total isomers | 0 % of total isomers | 2.1 % of total isomers | 5.8 % of total isomers | 2.8 % of total isomers | 11.6 % of total isomers | 6.0 % of total isomers | 5.9 % of total isomers | 1.5 % of total isomers | 5.6 % of total isomers | 8.6 % of total isomers | 2.3 % of total isomers | 66.5 % of total isomers | 8.2 % of total isomers | 7.0 % of total isomers | 15.9 % of total isomers | 4.1 % of total isomers | 56.0 % of total isomers | 10.5 % of total isomers | concentration (% of total isomers) 9-Z (0 days): 93.3 % of total isomers; concentration (% of total isomers) 13-Z (0 days): 0.6 % of total isomers; concentration (% of total isomers) 9-Z (1 day): 87.1 % of total isomers; concentration (% of total isomers) 13-Z (1 day): 2.3 % of total isomers; concentration (% of total isomers) 9-Z (2 days): 83.5 % of total isomers; concentration (% of total isomers) 13-Z (2 days): 3.1 % of total isomers; concentration (% of total isomers) 9-Z (5 days): 79.2 % of total isomers; concentration (% of total isomers) 13-Z (5 days): 5.2 % of total isomers; concentration (% of total isomers) all E (33 days): 9.8 % of total isomers; concentration (% of total isomers) x-Z (33 days): 19.7 % of total isomers |
| CC(C)=CCC/C(C)=C/C=C/C(C)=C/C=C/C(C)=C\C=C\C=C(C)\C=C\C=C(C)\C=C\C=C(/C)CCC=C(C)C [13-Z lycopene] | 0 % of total isomers | 2.4 % of total isomers | 1.0 % of total isomers | 0 % of total isomers | 42.6 % of total isomers | 0 % of total isomers | 0 % of total isomers | 59.8 % of total isomers | 1.5 % of total isomers | 1.9 % of total isomers | 68.9 % of total isomers | 4.3 % of total isomers | 5.3 % of total isomers | 2.6 % of total isomers | 20.8 % of total isomers | 65.5 % of total isomers | 5.8 % of total isomers | 11.7 % of total isomers | 4.2 % of total isomers | 16.9 % of total isomers | fraction of the isomer transformed / converted into other isomers (after 33 day storage in n-hexane at room temperature in the absence of light): more than 80%; concentration (% of total isomers) 9-Z (0 days): 0 % of total isomers; concentration (% of total isomers) 13-Z (0 days): 96.6 % of total isomers; concentration (% of total isomers) 9-Z (1 day): 0.4 % of total isomers; concentration (% of total isomers) 13-Z (1 day): 57.0 % of total isomers; concentration (% of total isomers) 9-Z (2 days): 0 % of total isomers; concentration (% of total isomers) 13-Z (2 days): 38.7 % of total isomers; concentration (% of total isomers) 9-Z (5 days): 1.5 % of total isomers; concentration (% of total isomers) 13-Z (5 days): 23.4 % of total isomers; concentration (% of total isomers) all E (33 days): 57.0 % of total isomers; concentration (% of total isomers) x-Z (33 days): 10.2 % of total isomers |
| CC(C)=CCC/C(C)=C/C=C/C(C)=C/C=C/C(C)=C/C=C/C=C(C)/C=C/C=C(C)/C=C/C=C(\C)CCC=C(C)C [all-E lycopene] | 0.5 % of total isomers | 97.6 % of total isomers | 0.1 % of total isomers | 1.2 % of total isomers | 86.0 % of total isomers | 1.5 % of total isomers | 2.6 % of total isomers | 78.4 % of total isomers | 3.0 % of total isomers | 3.8 % of total isomers | 69.3 % of total isomers | 5.1 % of total isomers | 6.4 % of total isomers | 2.0 % of total isomers | 18.2 % of total isomers | 67.8 % of total isomers | 5.6 % of total isomers | 13.4 % of total isomers | 3.8 % of total isomers | 15.7 % of total isomers | concentration (% of total isomers) 9-Z (0 days): 0.5 % of total isomers; concentration (% of total isomers) 13-Z (0 days): 1.4 % of total isomers; concentration (% of total isomers) 9-Z (1 day): 1.2 % of total isomers; concentration (% of total isomers) 13-Z (1 day): 10.1 % of total isomers; concentration (% of total isomers) 9-Z (2 days): 1.1 % of total isomers; concentration (% of total isomers) 13-Z (2 days): 15.0 % of total isomers; concentration (% of total isomers) 9-Z (5 days): 2.2 % of total isomers; concentration (% of total isomers) 13-Z (5 days): 19.6 % of total isomers; concentration (% of total isomers) all E (33 days): 58.7 % of total isomers; concentration (% of total isomers) x-Z (33 days): 8.4 % of total isomers |

— patent publication US8216619B2, “Stable and bioavailable compositions of isomers of carotenoids for skin and hair” (Indena S.p.A., priority 2006, dated 2012)
